System: de novo fatty acid synthesis
Experiment: Lipid metabolite profile of plasma, heart, liver and inguinal adipose of CL316,243-treated mice (trial 2; Tables 7 and 8)
Assay type: in vivo
Conditions: Liver, mean
Text: It is understood that the described methods can be used to analyze lipid metabolites from other subjects, including particularly animals other than mice.
Mouse tissue and plasma samples were a generous donation to Lipomics Technologies, Inc., from Dr. Edward Leiter of the Jackson Laboratory (Bar Harbor, Me.). Samples included the plasma, heart, liver and inguinal adipose of mice treated with pharmaceuticals or their corresponding controls.
In trial 2, male, inbred NON mice were fed a control with or without the presence of the β-3 adrenergic agonist CL316,243 for four weeks (at 0.001% CL316,243 by weight in the dietary chow).
In both studies, five treated and five control mice were used. Following the treatments and the killing of the mice, tissues and plasma were taken, chilled to −80 ° C. and shipped to the analysis laboratory at Lipomics Technologies in a frozen state.
Tissue processing and lipid extraction, including provision of internal standards, was carried out essentially as described in Watkins et al. (J. Lipid Res. Papers in Press, 10.1184/jlf.M200169-JLF200, published August 16, 2002), and in co-owned international application PCT/US02/21426, entitled “GENERATING, VIEWING, INTERPRETING, AND UTILIZING A QUANTITATIVE DATABASE OF METABOLITES,” both of which are incorporated in their entirety herein by reference.
The separation of lipid classes was performed in some instance by preparative thin-layer chromatography (TLC). To remove any residual metal or other damaging contaminants on the TLC plates, each plate was washed prior to use. Washing the plates is a three-step process that involves impregnating each plate with ethylenediamine tetraacetic acid (EDTA) and rinsing the plates once with methanol and once with chloroform. Each plate is first impregnated with 1 mM EDTA, pH 5.5, by ascending development using the method of Ruiz (J. Lipid Res. 38, 1482-1489, 1997). After each plate was completely developed, it was dried in air overnight. Once dry, each plate was developed in methanol, dried, and developed in chloroform in the same direction as the development with EDTA. The washed plates were then dried in air. Just prior to use, each plate was activated by heating to 110° C. for 10 minutes.
To prepare the TLC chamber for chromatography, Whatman (Clifton, N.J.) filter paper was cut into 20×80-cm strips and wrapped around the inside wall of a 30×60×10-cm glass development chamber. One hundred milliliters of the appropriate mobile phase was added to the chamber, and the chambers were sealed and allowed to equilibrate. Chambers were considered equilibrated when the solvent front had completely ascended the filter paper. The mobile phase employed for the separation of phospholipid classes (lyso-phospholipids, sphingomyelin, phosphatidylcholine, phosphatidylserine, phosphatidylethanolamine and cardiolipin) was a modification of the solvent system described by Holub and Skeaf (“Nutritional regulation of cellular phosphatidylinositol,” in Methods in Enzymology, ed. Conn, P. M. (Academic Press, Inc., Orlando), pp. 234-243, 1987) consisting of chloroform/methanol/acetic acid/water (100:67:7:4, by volume).
For the separation of neutral lipid classes (free fatty acids, free sterols, triacylglycerides and cholesterol esters), a solvent system consisting of petroleum ether/diethyl ether/acetic acid (80:20:1, by volume) was used (Mangold, Thin Layer Chromatography—A Laboratory Handbook (Springer-Verlag, New York), 1969).
After the TLC plate was activated, the sample extracts were spotted onto the activated plate. As a general rule, samples were spotted at an estimated concentration such that no single lipid class was present at more than 25 jig per centimeter of plate width following chromatography. This ensured that the plate was not overloaded and minimized the risk of cross-contamination between lipid classes (cross-contamination is readily identified during sample analysis as each lipid class contains unique internal standards). […]

C[C@H](Cc1ccc2c(c1)OC(C(=O)[O-])(C(=O)[O-])O2)NC[C@H](O)c1cccc(Cl)c1.[Na+].[Na+] [CL316,243]
Total nMole of FA (FFA): 9555.8 nanomoles per gram | 14:0 (PC): 69.0 nanomoles per gram | 16:0 (PC): 11221.7 nanomoles per gram | 16:1n7 (PC): 358.8 nanomoles per gram | 18:0 (PC): 5889.5 nanomoles per gram | 18:1n7 (PC): 741.3 nanomoles per gram | 18:1n9 (PC): 3855.0 nanomoles per gram | Saturates (PC): 17292.7 nanomoles per gram | Total n7 (PC): 1100.1 nanomoles per gram | Total n9 (PC): 3964.0 nanomoles per gram | Total nMole of FA (PC): 19052.2 nanomoles per gram | 14:0 (PE): 13.1 nanomoles per gram | 16:0 (PE): 4406.0 nanomoles per gram | 16:1n7 (PE): 117.9 nanomoles per gram | 18:0 (PE): 3777.4 nanomoles per gram | 18:1n7 (PE): 247.4 nanomoles per gram | 18:1n9 (PE): 1320.6 nanomoles per gram | Saturates (PE): 8245.4 nanomoles per gram | Total n7 (PE): 365.3 nanomoles per gram | Total n9 (PE): 1376.1 nanomoles per gram | Total nMole of FA (PE): 9924.9 nanomoles per gram | 14:0 (PL): 91.0 nanomoles per gram | 16:0 (PL): 16120.7 nanomoles per gram | 16:1n7 (PL): 586.5 nanomoles per gram | 18:0 (PL): 12438.5 nanomoles per gram | 18:1n7 (PL): 1242.7 nanomoles per gram | 18:1n9 (PL): 5839.1 nanomoles per gram | Saturates (PL): 29247.6 nanomoles per gram | Total n7 (PL): 1829.2 nanomoles per gram | Total n9 (PL): 6261.0 nanomoles per gram | Total nMole of FA (PL): 34731.4 nanomoles per gram | 14:0 (PS/I): 19.9 nanomoles per gram | 16:0 (PS/I): 898.1 nanomoles per gram | 16:1n7 (PS/I): 37.8 nanomoles per gram | 18:0 (PS/I): 4313.9 nanomoles per gram | 18:1n7 (PS/I): 100.2 nanomoles per gram | 18:1n9 (PS/I): 486.8 nanomoles per gram | Saturates (PS/I): 5283.6 nanomoles per gram | Total n7 (PS/I): 138.0 nanomoles per gram | Total n9 (PS/I): 607.6 nanomoles per gram | Total nMole of FA (PS/I): 5625.0 nanomoles per gram | 14:0 (TAG): 207.9 nanomoles per gram | 16:0 (TAG): 6580.5 nanomoles per gram | 16:1n7 (TAG): 675.6 nanomoles per gram | 18:0 (TAG): 668.7 nanomoles per gram | 18:1n7 (TAG): 619.4 nanomoles per gram | 18:1n9 (TAG): 7123.9 nanomoles per gram | Saturates (TAG): 7585.2 nanomoles per gram | Total n7 (TAG): 1295.0 nanomoles per gram | Total n9 (TAG): 7280.9 nanomoles per gram | Total nMole of FA (TAG): 6910.6 nanomoles per gram | 14:0 (lipid class CE): 2.5 percentage of total fatty acids | 16:0 (lipid class CE): 27.3 percentage of total fatty acids | 16:1n7 (lipid class CE): 4.9 percentage of total fatty acids | 18:0 (lipid class CE): 7.1 percentage of total fatty acids | 18:1n7 (lipid class CE): 1.8 percentage of total fatty acids | 18:1n9 (lipid class CE): 25.4 percentage of total fatty acids | Saturates (lipid class CE): 39.0 percentage of total fatty acids | Total (lipid class CE): 100.0 percentage of total fatty acids | Total n7 (lipid class CE): 6.7 percentage of total fatty acids | Total n9 (lipid class CE): 26.9 percentage of total fatty acids | 14:0 (lipid class CL): 0.4 percentage of total fatty acids | 16:0 (lipid class CL): 4.9 percentage of total fatty acids | 16:1n7 (lipid class CL): 1.5 percentage of total fatty acids | 18:0 (lipid class CL): 4.7 percentage of total fatty acids | 18:1n7 (lipid class CL): 4.4 percentage of total fatty acids | 18:1n9 (lipid class CL): 8.7 percentage of total fatty acids | Saturates (lipid class CL): 10.4 percentage of total fatty acids | Total (lipid class CL): 25.0 percentage of total fatty acids | Total n7 (lipid class CL): 5.9 percentage of total fatty acids | Total n9 (lipid class CL): 9.4 percentage of total fatty acids | 14:0 (lipid class FFA): 1.6 percentage of total fatty acids | 16:0 (lipid class FFA): 24.0 percentage of total fatty acids | 16:1n7 (lipid class FFA): 3.9 percentage of total fatty acids | 18:0 (lipid class FFA): 4.9 percentage of total fatty acids | 18:1n7 (lipid class FFA): 2.8 percentage of total fatty acids | 18:1n9 (lipid class FFA): 23.7 percentage of total fatty acids | Saturates (lipid class FFA): 31.2 percentage of total fatty acids | Total (lipid class FFA): 100.0 percentage of total fatty acids | Total n7 (lipid class FFA): 6.7 percentage of total fatty acids | Total n9 (lipid class FFA): 24.2 percentage of total fatty acids | 14:0 (lipid class PC): 0.2 percentage of total fatty acids | 16:0 (lipid class PC): 29.4 percentage of total fatty acids | 16:1n7 (lipid class PC): 0.9 percentage of total fatty acids | 18:0 (lipid class PC): 15.5 percentage of total fatty acids | 18:1n7 (lipid class PC): 1.9 percentage of total fatty acids | 18:1n9 (lipid class PC): 10.1 percentage of total fatty acids | Saturates (lipid class PC): 45.4 percentage of total fatty acids | Total (lipid class PC): 50.0 percentage of total fatty acids | Total n7 (lipid class PC): 2.9 percentage of total fatty acids | Total n9 (lipid class PC): 10.4 percentage of total fatty acids | 14:0 (lipid class PE): 0.1 percentage of total fatty acids | 16:0 (lipid class PE): 22.2 percentage of total fatty acids | 16:1n7 (lipid class PE): 0.6 percentage of total fatty acids | 18:0 (lipid class PE): 19.1 percentage of total fatty acids | 18:1n7 (lipid class PE): 1.2 percentage of total fatty acids | 18:1n9 (lipid class PE): 6.6 percentage of total fatty acids | Saturates (lipid class PE): 41.5 percentage of total fatty acids | Total (lipid class PE): 50.0 percentage of total fatty acids | Total n7 (lipid class PE): 1.8 percentage of total fatty acids | Total n9 (lipid class PE): 6.9 percentage of total fatty acids | 14:0 (lipid class PL): 0.1 percentage of total fatty acids | 16:0 (lipid class PL): 23.2 percentage of total fatty acids | 16:1n7 (lipid class PL): 0.8 percentage of total fatty acids | 18:0 (lipid class PL): 17.9 percentage of total fatty acids | 18:1n7 (lipid class PL): 1.8 percentage of total fatty acids | 18:1n9 (lipid class PL): 8.4 percentage of total fatty acids | Saturates (lipid class PL): 42.1 percentage of total fatty acids | Total (lipid class PL): 50.0 percentage of total fatty acids | Total n7 (lipid class PL): 2.6 percentage of total fatty acids | Total n9 (lipid class PL): 9.0 percentage of total fatty acids | 14:0 (lipid class PS/I): 0.2 percentage of total fatty acids | 16:0 (lipid class PS/I): 8.0 percentage of total fatty acids | 16:1n7 (lipid class PS/I): 0.3 percentage of total fatty acids | 18:0 (lipid class PS/I): 38.4 percentage of total fatty acids | 18:1n7 (lipid class PS/I): 0.9 percentage of total fatty acids | 18:1n9 (lipid class PS/I): 4.3 percentage of total fatty acids | Saturates (lipid class PS/I): 47.0 percentage of total fatty acids | Total (lipid class PS/I): 50.0 percentage of total fatty acids | Total n7 (lipid class PS/I): 1.2 percentage of total fatty acids

Source: patent US20050009005A1, “Methods of using quantitative lipid metabolome data” (Lipomics Technologies, Inc., priority 2001, published 2005)
